Tests used:
human CHK1 = molecular target: T1, human CHK1 (Homo sapiens, UniProt O14757); assay: CHK1 Assay (coupled spectrophotometric); type: biochemical
T1 construct: C-terminally His-tagged full-length human CHK1 (FL-CHK1) was expressed using the baculovirus/insect cell system; made in house; host or cells: baculovirus/insect cells
T1 sequence (O14757 1-476): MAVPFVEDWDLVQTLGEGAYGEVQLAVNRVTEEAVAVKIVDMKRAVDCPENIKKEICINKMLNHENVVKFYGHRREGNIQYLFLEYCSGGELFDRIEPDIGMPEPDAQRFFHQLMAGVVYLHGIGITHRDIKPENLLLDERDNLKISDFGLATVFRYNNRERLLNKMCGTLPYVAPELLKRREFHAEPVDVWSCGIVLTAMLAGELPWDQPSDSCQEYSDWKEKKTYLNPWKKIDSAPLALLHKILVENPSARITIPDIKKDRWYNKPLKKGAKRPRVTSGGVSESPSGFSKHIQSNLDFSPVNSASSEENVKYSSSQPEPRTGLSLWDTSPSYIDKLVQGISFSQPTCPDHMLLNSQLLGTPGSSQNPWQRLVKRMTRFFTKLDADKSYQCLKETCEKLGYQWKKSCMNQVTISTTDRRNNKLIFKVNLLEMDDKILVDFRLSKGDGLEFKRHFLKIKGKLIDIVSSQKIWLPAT
Text: C-terminally His-tagged full-length human CHK1 (FL-CHK1) was expressed using the baculovirus/insect cell system. It contains 6 histidine residues (6×His-tag) at the C-terminus of the 476 amino acid human CHK1. The protein was purified by conventional chromatographic techniques.
The production of ADP from ATP that accompanies phosphoryl transfer to the synthetic substrate peptide Syntide-2 ([…]) was coupled to oxidation of NADH using phosphoenolpyruvate (PEP) through the actions of pyruvate kinase (PK) and lactic dehydrogenase (LDH). The oxidation of NADH was monitored by following the decrease of absorbance at 340 nm (ε340=6.22 cm^−1 mM^−1) using a HP8452 spectrophotometer. Typical reaction solutions contained: […]; 0.15 mM NADH; 28 units of LDH/ml; 16 units of PK/ml; 3 mM DTT; 0.125 mM Syntide-2; 0.15 mM ATP; 25 mM MgCl2 in 50 mM TRIS, pH 7.5; and 400 mM NaCl. Assays were initiated with 10 nM of FL-CHK1. Ki values were determined by measuring initial enzyme activity in the presence of varying concentrations of test compounds. The data were analyzed using Enzyme Kinetic and Kaleidagraph software.

CDK2/cyclin A = molecular target: T2, CDK2/cyclin A (Homo sapiens, UniProt P24941); assay: Inhibition of CDK2/Cyclin A Retinoblastoma Kinase Activity; type: biochemical; settings: apparent Ki
T2 construct: made in house; host or cells: CDK2: insect cells (baculovirus); cyclin A: E. coli
Summary of the method: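 Baculovirus-expressed CDK2 complexed with proteolyzed cyclin A, at 150 nM or 5 nM, phosphorylating an Rb fragment with 25 µM [32/33P]ATP in HEPES pH 7.4, 2% DMSO. Reactions run 20 min at 30°C, EDTA-stopped, filter-captured; apparent Ki from competitive or tight-binding competitive fits.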

CDK4/cyclin D3 = CDK4/cyclin D3 (Homo sapiens, UniProt P11802); assay: Inhibition of CDK4/Cyclin D Retinoblastoma Kinase Activity; type: biochemical; settings: apparent Ki
Chain of CDK4/cyclin D3 (P11802 2-303 limits assumed): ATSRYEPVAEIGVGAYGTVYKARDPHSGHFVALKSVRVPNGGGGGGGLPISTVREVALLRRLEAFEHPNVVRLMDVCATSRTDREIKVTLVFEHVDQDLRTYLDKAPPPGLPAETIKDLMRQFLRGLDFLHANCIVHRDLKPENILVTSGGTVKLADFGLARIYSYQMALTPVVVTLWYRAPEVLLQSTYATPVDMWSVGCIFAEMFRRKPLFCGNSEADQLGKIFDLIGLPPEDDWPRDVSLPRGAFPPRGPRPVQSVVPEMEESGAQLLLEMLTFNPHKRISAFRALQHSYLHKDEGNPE
Chain of CDK4/cyclin D3 (P30281 1-264 limits assumed, further chain): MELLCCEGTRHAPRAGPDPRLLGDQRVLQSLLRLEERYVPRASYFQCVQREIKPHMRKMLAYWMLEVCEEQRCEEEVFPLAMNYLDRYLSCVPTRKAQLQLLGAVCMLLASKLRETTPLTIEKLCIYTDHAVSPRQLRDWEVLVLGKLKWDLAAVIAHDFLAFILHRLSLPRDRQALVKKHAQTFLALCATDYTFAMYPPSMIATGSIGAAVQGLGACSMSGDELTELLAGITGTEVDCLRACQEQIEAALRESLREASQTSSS
Summary of the method: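 Human CDK4/cyclin D3 (full-length or cyclin D3 1–264), insect-cell expressed, at 5 or 50 nM with His-tagged Rb 386–928 substrate, 25 μM ATP plus [32P/33P]ATP, pH 7.4, 2% DMSO, 30 °C for 20 min; tight binders used 5 nM enzyme for 60 min. Filter-captured phospho-Rb quantified by phosphorimager. Apparent Ki from competitive or tight-binding inhibition fits.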

FAK = assay: Coupled Spectrophotometric (FAK) Assay; type: biochemical
Procedure: Coupled Spectrophotometric (FAK) Assay
Tyrosine kinase assays were monitored using a Beckman DU 650 Spectrophotometer. Production of ADP was coupled to oxidation of NADH using phosphoenolpyruvate (PEP) through the actions of pyruvate kinase (PK) and lactic dehydrogenase (LDH). The oxidation of NADH was monitored by following the decrease in absorbance at 340 nm (ε340=6.22 cm^−1 mM^−1). Typical reaction solutions contained: 1 mM PEP, 250 μM NADH, 50 units of LDH/mL, 20 units of PK/mL, 5 mM DTT, in 200 mM Hepes, pH 7.5 and varying concentrations of poly(E4Y1), ATP and MgCl2. Assays were initiated with 40 nM of […].

LCK tyrosine kinase = molecular target: T3, LCK tyrosine kinase (Homo sapiens, UniProt P06239, C224D/P223M); assay: Inhibition of phosphorylated LCK tyrosine kinase activity; type: biochemical; settings: read-out: LCK % Inhib. at 1 μM
T3 construct: starting from amino acid 223 to the end of the protein at amino acid 509; made in house; host or cells: insect cells
T3 sequence (P06239 223-509 P223M/C224D): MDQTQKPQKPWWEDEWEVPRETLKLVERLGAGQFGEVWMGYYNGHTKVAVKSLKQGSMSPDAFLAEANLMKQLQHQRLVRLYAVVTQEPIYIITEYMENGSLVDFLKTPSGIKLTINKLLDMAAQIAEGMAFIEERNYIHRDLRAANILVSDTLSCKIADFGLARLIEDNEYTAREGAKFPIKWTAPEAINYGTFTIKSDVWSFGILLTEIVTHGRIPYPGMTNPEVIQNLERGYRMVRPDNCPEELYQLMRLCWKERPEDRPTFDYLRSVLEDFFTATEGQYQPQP
Procedure: (§1) Inhibition of Phosphorylated FGF Receptor and LCK Tyrosine Kinase Activity
(§2) Cloning, expression and purification of the cytosolic domain of FGFR1 tyrosine kinase (amino acids 456–766) containing three amino acid substitutions (L457V, C488A, and C584S) were conducted as previously described (Mohammadi, M., Schlessinger, J., & Hubbard, S. R. (1996) Cell 86, 577–587). This domain was expressed in Sf9 insect cells using a baculovirus expression vector, and protein was purified using conventional techniques. The LCK tyrosine kinase was expressed in insect cells as an N-terminal deletion starting from amino acid 223 to the end of the protein at amino acid 509. The N-terminus of the protein also had two amino acid substitutions, P223M and C 224D. Kinases were purified using conventional chromatographic methods.
(§3) Tyrosine kinase activity was measured using a coupled, continuous spectrophotometric assay, in which production of phosphorylated poly(Glu, Tyr; 4:1) substrate and ADP is coupled to the pyruvate kinase-catalyzed transfer of a phosphate from phosphoenolpyruvate to ADP, with generation of pyruvate and regeneration of ATP. Pyruvate production is in turn coupled to the lactate dehydrogenase-catalyzed reduction of pyruvate to form lactate, with concomitant conversion of NADH to NAD+. Loss of NADH is monitored by measuring absorbance at 340 nm (see e.g., Technikova-Dobrova et al., “Spectrophotometric determination of functional characteristics of protein kinases with coupled enzymatic assay,” FEBS Letters, vol. 292 (1991), pp. 69–72). Enzyme activity was measured in the presence of 200 mM HEPES (pH 7.5), 2 mM phosphoenolpyruvate, 0.3 mM NADH, 20 mM MgCl2, 100 μM ATP, 5 mM DTT, 5.1 or 25 mM poly (Glu,Tyr) 4:1 for P-FGF or P-LCK assays, respectively, and 15 units/mL each of pyruvate kinase and lactate dehydrogenase. Phosphorylated FGF receptor kinase was present at 100 nM and phosphorylated LCK kinase was present at 50 nM. Assays were performed under initial rate conditions at 37° C., and rates were corrected for any background rate measured in the absence of enzyme. Percent inhibition was calculated relative to control enzyme assayed in the presence of 2% (v/v) DMSO.

FGFR1 tyrosine kinase = molecular target: T4, FGFR1 tyrosine kinase (Homo sapiens, UniProt P11362, C488A/C584S/L457V); assay: Inhibition of phosphorylated FGF receptor tyrosine kinase activity; type: biochemical; settings: read-out: FGF % Inhib. at 1 μM
T4 construct: the cytosolic domain of FGFR1 tyrosine kinase (amino acids 456–766); made in house; host or cells: Sf9 insect cells (baculovirus)
T4 sequence (P11362 456-766 L457V/C488A/C584S): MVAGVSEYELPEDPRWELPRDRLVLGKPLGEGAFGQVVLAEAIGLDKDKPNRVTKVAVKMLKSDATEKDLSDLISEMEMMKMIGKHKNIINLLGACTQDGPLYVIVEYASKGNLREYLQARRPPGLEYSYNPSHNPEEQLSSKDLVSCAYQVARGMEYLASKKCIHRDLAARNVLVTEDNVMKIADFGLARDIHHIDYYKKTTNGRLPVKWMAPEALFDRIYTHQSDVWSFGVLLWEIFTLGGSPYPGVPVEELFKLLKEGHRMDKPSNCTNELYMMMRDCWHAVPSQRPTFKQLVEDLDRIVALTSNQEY
Procedure: as §1, §2, §3

HCT 116 cell line = assay: Inhibition of Cell Growth (MTT tetrazolium salt assay); type: cell-based; settings: Homo sapiens, HCT 116, MTT; for IC50: 50% inhibition of growth, read-out: HCT 116 IC50; for IC90: read-out: HCT 116 IC90
Summary of the method: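 HCT 116 cells in McCoy's 5A were dosed 4 h after plating, in 0.5% (v/v) DMSO, then held 4–6 days at 37 °C, 5% CO2. MTT at 0.2 mg/mL final for 4 h; DMSO-solubilized formazan read at 540 nm. IC50 taken from the linear part of a semi-log plot versus DMSO-only controls.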

Row | Structure (SMILES) | Ki (human CHK1) | Ki (CDK2/cyclin A) | Ki (CDK4/cyclin D3) | FAK % Inhibition at 1 μM (FAK) | inhibition at 20 µM (human CHK1) | inhibition at 1 µM (LCK tyrosine kinase) | inhibition at 1 µM (FGFR1 tyrosine kinase) | IC50 (HCT 116 cell line) | IC90 (HCT 116 cell line)
1 | C(=C\c1n[nH]c2ccc(-c3ccccc3)cc12)/c1ccccc1 [Example 1, 5-Phenyl-3-Styryl-1H-Indazole] | 6.7 µM | 11000 nM | 1700 nM | 32% | – | – | – | – | –
2 | COc1cccc(-c2ccc3[nH]nc(-c4nc5ccccc5[nH]4)c3c2)c1 [Example 5, 3-(1H-Benzoimidazol-2-yl)-5-(3-methoxyphenyl)-1H-indazole] | – | 690 nM | 480 nM | – | 56% | – | – | – | –
3 | Cc1c(O)cccc1-c1ccc2[nH]nc(-c3nc4c(O)cccc4[nH]3)c2c1 [Example 21, 2-[5-(3-Hydroxy-2-methyl-phenyl)-1H-indazol-3-yl]-1H-benzoimidazol-4-ol] | 8.55 µM | 49 nM | 237 nM | – | – | 23% | 54% | – | –
4 | OC1CCN(c2ccc3[nH]nc(/C=C/c4ccccc4)c3c2)CC1 [Example 27, 1-[3-((E)Styryl)-1H-indazol-5-yl]-piperidin-4-ol] | – | 1600 nM | 1500 nM | 44% | – | – | – | – | –
5 | OC1CCCN(c2ccc3[nH]nc(/C=C/c4ccccc4)c3c2)C1 (stereo not drawn) [Example 28, 1-[3-((E)Styryl)-1H-indazol-5-yl]-piperidin-3-ol] | – | 720 nM | 680 nM | 61% | – | – | – | – | –
6 | Clc1ccncc1-c1ccc2[nH]nc(/C=C/c3ccccc3)c2c1 [Example 42, 5-(4-Chloro-pyridin-3-yl)-3-(E)-styryl-1H-indazole] | – | 17.2 nM | 8.2 nM | 78% | – | – | 70.3% | 3000 nM | 5 µM
7 | Fc1cccc2cncc(-c3ccc4[nH]nc(/C=C/c5ccccc5)c4c3)c12 [Example 44] | – | 29 nM | 19 nM | – | – | – | 56.2% | 5000 nM | 5 µM
8 | Nc1cccc2c(-c3ccc4[nH]nc(/C=C/c5ccccc5)c4c3)cncc12 [Example 45] | – | 17 nM | 12 nM | 63% | – | – | 58.7% | 2100 nM | 5 µM
9 | COc1c(O)cccc1-c1ccc2[nH]nc(-c3nc4ccccc4[nH]3)c2c1 [Example 47, 3-[3-(1H-benzoimidazol-2-yl)-1H-indazol-5-yl]-2-methoxy-phenol] | – | 100 nM | 94 nM | – | – | – | 81.1% | 2100 nM | 5 µM
10 | Oc1ccc(F)c(-c2ccc3[nH]nc(-c4nc5ccccc5[nH]4)c3c2)c1F [Example 49, 3-[-3-(1H-Benzoimidazol-2-yl)-1H-indazol-5-yl]-2,4-difluoro-phenol] | – | 49 nM | 95 nM | – | – | – | 86.7% | 2300 nM | 4.8 µM
11 | Oc1cc(F)c(-c2ccc3[nH]nc(-c4nc5ccccc5[nH]4)c3c2)c(F)c1 [Example 50, 4-[-3-(1H-Benzoimidazol-2-yl)-1H-indazol-5-yl]-3,5-difluoro-phenol] | – | 73 nM | 253 nM | – | – | – | 89.6% | 1800 nM | 5 µM
12 | Cc1c(-c2ccc3[nH]nc(-c4nc5ccccc5[nH]4)c3c2)cncc1-c1c[nH]cn1 [Example 65, 3-(1H-Benzoimidazol-2-yl)-5-[5-(1H-imidazol-4-yl)-4-methyl-pyridin-3-yl]-1H-indazole] | – | 1 nM | 2.8 nM | – | – | – | 44.1% | 390 nM | 1.3 µM
13 | Cc1c(-c2ccncc2)cncc1-c1ccc2[nH]nc(-c3nc4c(CN(C)C)cccc4[nH]3)c2c1 [Example 68, Dimethyl-{2-[5-(4-methyl-[3,4′]bipyridinyl-5-yl)-1H-indazol-3-yl]-1H-benzoimidazol-4-ylmethyl}-amine] | – | 1.1 nM | 4.7 nM | – | – | – | 12.6% | 160 nM | 0.6 µM
14 | Nc1ccc2[nH]nc(-c3ccc[nH]3)c2c1 [Example 84, 5-Amino-3-(2-Pyrrolyl)-1H-indazole] | 22.5 µM | 28000 nM | 34000 nM | – | – | – | – | – | –

Reference: patent US7232912B2, “Indazole compounds, pharmaceutical compositions, and methods for mediating or inhibiting cell proliferation” (Agouron Pharmaceuticals, Inc., priority 2000, dated 2007)
